According to PubChem BioAssay (NCI):
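How tested: cells in 96-well plates exposed to compound for 48 hours at five concentrations. Here, GI50 denotes the concentration required for 50% inhibition of growth. TGI denotes the concentration required for complete inhibition of growth.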

Tests used:
Experiment in all cases: NCI anticancer screen, dose series, 48 h
MDA-N = tested on: MDA-N
KM12 colon = tested on: KM12 colon
CCRF-CEM leukemia = tested on: CCRF-CEM leukemia
UO-31 renal = tested on: UO-31 renal
MOLT-4 leukemia = tested on: MOLT-4 leukemia
SK-MEL-5 melanoma = tested on: SK-MEL-5 melanoma
SK-MEL-2 melanoma = tested on: SK-MEL-2 melanoma
PC-3 prostate = tested on: PC-3 prostate
UACC-62 melanoma = tested on: UACC-62 melanoma
M14 melanoma = tested on: M14 melanoma
LOX IMVI melanoma = tested on: LOX IMVI melanoma
786-0 renal = tested on: 786-0 renal
OVCAR-8 ovarian = tested on: OVCAR-8 ovarian
CAKI-1 renal = tested on: CAKI-1 renal
A549 NSCLC = tested on: A549 NSCLC
SK-MEL-28 melanoma = tested on: SK-MEL-28 melanoma
K-562 leukemia = tested on: K-562 leukemia
HCT-15 colon = tested on: HCT-15 colon
HOP-62 NSCLC = tested on: HOP-62 NSCLC
DU-145 prostate = tested on: DU-145 prostate
BT-549 breast = tested on: BT-549 breast
SN12C renal = tested on: SN12C renal
SNB-19 CNS = tested on: SNB-19 CNS
NCI-H23 lung = tested on: NCI-H23 lung
OVCAR-5 ovarian = tested on: OVCAR-5 ovarian
COLO 205 colon = tested on: COLO 205 colon
MDA-MB-435 = tested on: MDA-MB-435
HOP-92 NSCLC = tested on: HOP-92 NSCLC
IGROV1 ovarian = tested on: IGROV1 ovarian
SF-268 CNS = tested on: SF-268 CNS
TK-10 renal = tested on: TK-10 renal
U251 CNS = tested on: U251 CNS
HS 578T breast = tested on: HS 578T breast
OVCAR-3 ovarian = tested on: OVCAR-3 ovarian
MCF7 breast = tested on: MCF7 breast
SW-620 colon = tested on: SW-620 colon
NCI-H460 lung = tested on: NCI-H460 lung
EKVX NSCLC = tested on: EKVX NSCLC
SNB-75 CNS = tested on: SNB-75 CNS
HT29 colon = tested on: HT29 colon
RPMI-8226 leukemia = tested on: RPMI-8226 leukemia
OVCAR-4 ovarian = tested on: OVCAR-4 ovarian
MDA-MB-231 breast = tested on: MDA-MB-231 breast
ACHN renal = tested on: ACHN renal
HCC-2998 colon = tested on: HCC-2998 colon
HCT-116 colon = tested on: HCT-116 colon
T-47D breast = tested on: T-47D breast
SF-295 CNS = tested on: SF-295 CNS
UACC-257 melanoma = tested on: UACC-257 melanoma
RXF 393 renal = tested on: RXF 393 renal
SK-OV-3 ovarian = tested on: SK-OV-3 ovarian
A498 renal = tested on: A498 renal
NCI/ADR-RES ovarian = tested on: NCI/ADR-RES ovarian
NCI-H522 lung = tested on: NCI-H522 lung
NCI-H226 lung = tested on: NCI-H226 lung
HL-60(TB) leukemia = tested on: HL-60(TB) leukemia
SF-539 CNS = tested on: SF-539 CNS
MALME-3M melanoma = tested on: MALME-3M melanoma

Structure (SMILES): NC(CC1=CCC=CC1)C(=O)O (configuration not stated)
- TGI (MDA-N): > 100 µM
- TGI (KM12 colon): > 100 µM
- TGI (CCRF-CEM leukemia): > 100 µM
- TGI (UO-31 renal): > 100 µM
- TGI (MOLT-4 leukemia): > 100 µM
- TGI (SK-MEL-5 melanoma): > 100 µM
- TGI (SK-MEL-2 melanoma): > 100 µM
- TGI (PC-3 prostate): > 100 µM
- TGI (UACC-62 melanoma): > 100 µM
- TGI (M14 melanoma): > 100 µM
- TGI (LOX IMVI melanoma): > 100 µM
- TGI (786-0 renal): > 100 µM
- TGI (OVCAR-8 ovarian): > 100 µM
- TGI (CAKI-1 renal): > 100 µM
- TGI (A549 NSCLC): > 100 µM
- TGI (SK-MEL-28 melanoma): > 100 µM
- TGI (K-562 leukemia): > 100 µM
- TGI (HCT-15 colon): > 100 µM
- TGI (HOP-62 NSCLC): > 100 µM
- TGI (DU-145 prostate): > 100 µM
- TGI (BT-549 breast): > 100 µM
- TGI (SN12C renal): > 100 µM
- TGI (SNB-19 CNS): > 100 µM
- TGI (NCI-H23 lung): > 100 µM
- TGI (OVCAR-5 ovarian): > 100 µM
- TGI (COLO 205 colon): > 100 µM
- TGI (MDA-MB-435): > 100 µM
- TGI (HOP-92 NSCLC): > 100 µM
- TGI (IGROV1 ovarian): > 100 µM
- TGI (SF-268 CNS): > 100 µM
- TGI (TK-10 renal): > 100 µM
- TGI (U251 CNS): > 100 µM
- TGI (HS 578T breast): > 100 µM
- TGI (OVCAR-3 ovarian): > 100 µM
- TGI (MCF7 breast): > 100 µM
- TGI (SW-620 colon): > 100 µM
- TGI (NCI-H460 lung): > 100 µM
- TGI (EKVX NSCLC): > 100 µM
- TGI (SNB-75 CNS): > 100 µM
- TGI (HT29 colon): > 100 µM
- TGI (RPMI-8226 leukemia): > 100 µM
- TGI (OVCAR-4 ovarian): > 100 µM
- TGI (MDA-MB-231 breast): > 100 µM
- TGI (ACHN renal): > 100 µM
- TGI (HCC-2998 colon): > 100 µM
- TGI (HCT-116 colon): > 100 µM
- TGI (T-47D breast): > 100 µM
- TGI (SF-295 CNS): > 100 µM
- TGI (UACC-257 melanoma): > 100 µM
- TGI (RXF 393 renal): > 100 µM
- TGI (SK-OV-3 ovarian): > 100 µM
- TGI (A498 renal): > 100 µM

Structure (SMILES): Nc1ncnc2c1cnn2Cc1ccc(Cl)cc1
- TGI (MDA-N): > 100 µM
- TGI (KM12 colon): > 100 µM
- TGI (CCRF-CEM leukemia): > 100 µM
- TGI (UO-31 renal): > 100 µM
- TGI (MOLT-4 leukemia): > 100 µM
- TGI (SK-MEL-5 melanoma): > 100 µM
- GI50 (SK-MEL-2 melanoma): > 100 µM
- TGI (SK-MEL-2 melanoma): > 100 µM
- TGI (PC-3 prostate): > 100 µM
- GI50 (UACC-62 melanoma): > 100 µM
- TGI (UACC-62 melanoma): > 100 µM
- TGI (M14 melanoma): > 100 µM
- TGI (LOX IMVI melanoma): > 100 µM
- GI50 (786-0 renal): > 100 µM
- TGI (786-0 renal): > 100 µM
- TGI (OVCAR-8 ovarian): > 100 µM
- GI50 (CAKI-1 renal): 31.8 µM
- TGI (CAKI-1 renal): > 100 µM
- TGI (A549 NSCLC): > 100 µM
- GI50 (SK-MEL-28 melanoma): 74.8 µM
- TGI (SK-MEL-28 melanoma): > 100 µM
- TGI (K-562 leukemia): > 100 µM
- TGI (HCT-15 colon): > 100 µM
- GI50 (HOP-62 NSCLC): > 100 µM
- TGI (HOP-62 NSCLC): > 100 µM
- TGI (DU-145 prostate): > 100 µM
- GI50 (BT-549 breast): 72.1 µM
- TGI (BT-549 breast): > 100 µM
- TGI (SN12C renal): > 100 µM
- TGI (NCI/ADR-RES ovarian): > 100 µM
- TGI (SNB-19 CNS): > 100 µM
- TGI (NCI-H23 lung): > 100 µM
- TGI (NCI-H522 lung): > 100 µM
- GI50 (OVCAR-5 ovarian): 44.8 µM
- TGI (OVCAR-5 ovarian): > 100 µM
- TGI (COLO 205 colon): > 100 µM
- TGI (MDA-MB-435): > 100 µM
- TGI (HOP-92 NSCLC): > 92.5 µM
- TGI (NCI-H226 lung): > 100 µM
- GI50 (IGROV1 ovarian): > 100 µM
- TGI (IGROV1 ovarian): > 100 µM
- TGI (SF-268 CNS): > 100 µM
- TGI (TK-10 renal): > 100 µM
- TGI (U251 CNS): > 100 µM
- TGI (HL-60(TB) leukemia): > 100 µM
- TGI (HS 578T breast): > 100 µM
- TGI (OVCAR-3 ovarian): > 100 µM
- TGI (MCF7 breast): > 100 µM
- TGI (SW-620 colon): > 100 µM
- TGI (NCI-H460 lung): > 100 µM
- TGI (SNB-75 CNS): > 100 µM
- TGI (HT29 colon): > 100 µM
- GI50 (RPMI-8226 leukemia): > 100 µM
- TGI (RPMI-8226 leukemia): > 100 µM
- TGI (OVCAR-4 ovarian): > 100 µM
- GI50 (SF-539 CNS): 67.4 µM
- TGI (SF-539 CNS): > 100 µM
- TGI (MDA-MB-231 breast): > 100 µM
- TGI (ACHN renal): > 100 µM
- TGI (HCC-2998 colon): > 100 µM
- TGI (HCT-116 colon): > 100 µM
- TGI (T-47D breast): > 100 µM
- TGI (SF-295 CNS): > 100 µM
- TGI (UACC-257 melanoma): > 100 µM
- TGI (RXF 393 renal): > 100 µM
- GI50 (SK-OV-3 ovarian): > 100 µM
- TGI (SK-OV-3 ovarian): > 100 µM
- TGI (A498 renal): 68.6 µM
- GI50 (MALME-3M melanoma): > 100 µM
- TGI (MALME-3M melanoma): > 100 µM
